Laboratory results: patent US20180369241A1, “TREATMENT OF CANCER WITH DNAPK INHIBITORS” (Celgene Corporation, priority 2015, published 2018)

Columns and labels:
C4-2 cells [1] = test: Boyden chamber migration and invasion assay, crystal violet quantification; format: cell-based
Source text: (§1) FIG. 2 provides: Representative images (200×) and crystal violet quantification of migration (panel A) and invasion (panel B) of C4-2, LNCaP-AR and PC3 cells in Boyden chamber assays after DNAPK knockdown (siRNA) or inhibition (NU7441); C4-2, LNCaP-AR and PC3 cell growth curves after DNAPK inhibition (NU7441) (panel C) or knockdown (siRNA) (panel D); and DNAPK knockdown by siRNA relative to non-targeting (siNTC) control (panel E). *p<0.05, […] compared to respective controls. All graphs are mean±S.D.
(§2) FIG. 4 provides: Expression of Wnt pathway genes after DNAPK knockdown (panel A) or inhibition (NU7441) (panel B) in LNCaP-AR cells; Immunoblot analyses of DNAPK, phospho-DNAPK (pDNAPK), active beta catenin (βcatenin), and cMyc levels in LNCaP-AR and C4-2 cells after DNAPK knockdown (siDNAPK) or inhibition (NU7441) with or without Wnt3A stimulation (panels C-D); Representative images (200×) and crystal violet quantification of LNCaP-AR and C4-2 cell invasion and migration after DNAPK inhibition (NU7441 or Compound 1) with or without Wnt3A stimulation (panel E); and Representative images (200×) and crystal violet quantification of enzalutamide-resistant LNCaP-AR (LNCaP-AR-enza-res) cell invasion and migration after DNAPK inhibition (NU7441 or Compound 1) or continued enzalutamide treatment (Enza) (panel F). All graphs are mean±S.D. *=p<0.05 compared to respective controls. Enza=enzalutamide. Enza-res=enzalutamide resistant. RQ=relative quantity. siNTC=non-targeting siRNA control.

LNCaP-AR cells [2] = test: as above; format: cell-based
Source text: as §1, §2

PC3 cells [3] = test: as above; format: cell-based; conditions: PC3 cells (AR-negative)
Source text: as §1

C4-2 cells [4] = test: Cell growth curves after DNAPK inhibition; format: cell-based
Source text: as §1

LNCaP-AR cells [5] = test: Cell growth curves after DNAPK inhibition; format: cell-based
Source text: as §1

PC3 cells [6] = test: Cell growth curves after DNAPK inhibition; format: cell-based
Source text: as §1

[7] = tested on: Wnt pathway genes in LNCaP-AR cells; test: Expression of Wnt pathway genes after DNAPK inhibition; format: cell-based
Source text: as §2

[8] = tested on: Wnt pathway genes in C4-2 cells; test: as above; format: cell-based
Source text: FIG. 8 provides: Expression of Wnt pathway genes in C4-2 cells after inhibition (NU7441) (panel A) or knockdown (panel B) of DNAPK; and Expression of Notch pathway genes in LNCaP-AR, PC3 and C4-2 cells after knockdown of DNAPK (panel C). GAPDH was used as internal reference, bars are mean±S.D. *=p<0.05. RQ=relative quantity.

[9] = tested on: active beta-catenin and cMyc in C4-2 cells; test: Immunoblot of active beta catenin and cMyc with or without Wnt3A stimulation; format: cell-based; conditions: baseline and Wnt3A-induced
Source text: as §2

[10] = tested on: active beta-catenin and cMyc in LNCaP-AR cells; test: as above; format: cell-based; conditions: baseline and Wnt3A-induced
Source text: as §2

LNCaP-AR-MDVR cells = test: Invasion and migration of enzalutamide-resistant LNCaP-AR cells, crystal violet quantification; format: cell-based
Source text: as §2
FIG. 9 provides: Expression of Wnt pathway target genes in LNCaP-AR cells grown in enzalutamide until resistance (LNCaP-AR-enza-res) relative to LNCaP-AR cells grown in vehicle (DMSO) (panel A); and Expression of AR or AR-target genes FKBP5 and KLK3 (PSA) in LNCaP-AR-enza-res cells after treatment with 10 μM enzalutamide (panel B). GAPDH was used as internal reference, bars are mean±S.D. *=p<0.05. RQ=relative quantity.

[11] = tested on: TOPFLASH reporter in PC3 cells; test: TOPFLASH luciferase reporter activity; format: cell-based; conditions: baseline and Wnt3A-induced, normalized to renilla luciferase
Source text: FIG. 5 provides: Immunoblot analyses of DNAPK, KU70 and LEF1 after DNAPK immunoprecipitation (left), and LEF1 and DNAPK after LEF1 immunoprecipitation (right) in LNCaP-AR cells (panel A); TOPFLASH luciferase reporter activity in PC3 cells after DNAPK inhibition (NU7441) and/or Wnt3A stimulation; activity is normalized to renilla luciferase (panel B); and Representative images (200×) and crystal violet quantification of LNCaP-AR and C4-2 cell invasion and migration after DNAPK, LEF1 or beta catenin (CTNNB1) knockdown by siRNA. *=p<0.05 compared to respective controls, #=p<0.05 compared to Wnt3A (panel C). All graphs are mean±S.D. siNTC=non targeting siRNA control.

LNCaP-AR xenografts = format: in vivo; conditions: for median tumor tripling time: enzalutamide 10 mg/kg, Compound 1 2 mg/kg, vehicle 15 days
Experimental: (§3) FIG. 6 provides: Growth curves of LNCaP-AR xenografts in castrated mice treated daily with vehicle (black, n=5) or 25 mg/kg NU7441 (gray, n=6) (panel A); Fold change in final tumor volume (panel B); Kaplan-Meier curves of freedom from tumor doubling time with vehicle or NU7441 (25 mg/kg) treatment of LNCaP-AR xenograft tumors (panel C); Growth curves of LNCaP-AR xenograft tumors with 5 times weekly oral gavage enzalutamide (10 mg/kg, n=16), Compound 1 (2 mg/kg, n=14), Compound 1+enzalutamide (n=14), or vehicle (n=14) treatment. Bar graph represents change in final tumor volume compared to starting tumor volume (panel D); Kaplan-Meier curves of freedom from tumor tripling with enzalutamide, Compound 1, enzalutamide+Compound 1, or vehicle treatment of LNCaP-AR xenograft tumors (panel E); Expression of select Wnt pathway target genes in human primary prostate tumor explants treated with NU7441 (n=6) or vehicle (panel F); and Representative images of Ki67 immunostaining of human primary prostate tumor explants treated with NU7441 (n=6) or vehicle; Ki67-positive nuclei are indicated with arrows (panel G). All graphs are mean±S.E.M. *=p<0.05 compared to respective control, #=p<0.05 for enzalutamide compared to Compound 1+enzalutamide, **=p<0.01 for Compound 1 compared to vehicle.
(§4) FIG. 10 provides: Body weight measurements of LNCaP-AR xenograft mice after treatment with NU7441 (panel A); Growth curves of VCaP xenograft tumors with various doses of Compound 1 (administered once daily via oral gavage, 5 times per week for 6 weeks) or vehicle (panel B); Body weight measurements of VCaP xenograft mice after treatment with various Compound 1 doses (panel C); and Growth curves of PC3 xenograft tumors treated with Compound 1 or vehicle (panel D). All graphs are mean±S.E.M. *=p<0.05 compared to vehicle.

[12] = tested on: human primary prostate tumor explants; test: Human primary prostate tumor explants; conditions: human prostate cancer explants
Experimental: as §3

VCaP xenograft tumors = format: in vivo, mice
Source text: as §4

PC3 xenograft tumors = test: PC3 xenograft tumor growth; format: in vivo
Source text: as §4

[13] = C4-2 (CRPC) cells, baseline and Wnt3A-induced
[14] = LNCaP-AR (CRPC) cells, baseline and Wnt3A-induced

## O=c1cc(N2CCOCC2)oc2c(-c3cccc4c3sc3ccccc34)cccc12 [NU7441]
C4-2 cells [1]; [13]
  invasion: abrogated
  migration: abrogated
C4-2 cells [1]; C4-2 cells (AR-positive)
  invasion: drastically diminished
  migration: drastically diminished
LNCaP-AR cells [2]; [14]
  invasion: abrogated
  migration: abrogated
LNCaP-AR cells [2]; LNCaP-AR cells (AR-positive)
  invasion: drastically diminished
  migration: drastically diminished
PC3 cells [3]
  invasion: drastically diminished
  migration: drastically diminished
C4-2 cells [4]
  proliferation: drastically diminished
LNCaP-AR cells [5]
  proliferation: drastically diminished
PC3 cells [6]
  proliferation: drastically diminished
[7]
  Wnt pathway genes expression: robust reduction
[8]
  Wnt pathway genes expression: robust reduction
[9]
  levels of active beta-catenin: reduced
  levels of cMyc: reduced
[10]
  levels of active beta-catenin: reduced
  levels of cMyc: reduced
LNCaP-AR-MDVR cells
  invasion: significantly reduced
  migration: significantly reduced
[11]
  TOPFLASH reporter activity: significantly reduced
LNCaP-AR xenografts; castrated mice, 25 mg/kg daily
  reduction in tumor growth compared to control: 44%
LNCaP-AR xenografts; castrated mice, 25 mg/kg daily, fold change in final tumor volume, vehicle 8.57±1.45
  relative tumor volume: 4.84±1.97
LNCaP-AR xenografts; castrated mice, 25 mg/kg daily, vehicle 7 days
  median tumor doubling time: 21.5 days
LNCaP-AR xenografts; mouse, in vivo
  toxicity as measured by body weight: minimal
[12]
  Wnt target gene expression: marked reduction
  proliferative index, as determined by Ki67 levels: marked reduction

## CCN1C(=O)CNc2ncc(-c3ccc(-c4nc[nH]n4)nc3C)nc21 [Compound 1, 1-ethyl-7-(2-methyl-6-(1H-1,2,4-triazol-3-yl)pyridin-3-yl)-3,4-dihydropyrazino[2,3-b]pyrazin-2(1H)-one]
C4-2 cells [1]; [13]
  invasion: abrogated
  migration: abrogated
LNCaP-AR cells [2]; [14]
  invasion: abrogated
  migration: abrogated
LNCaP-AR-MDVR cells
  invasion: significantly reduced
  migration: significantly reduced
LNCaP-AR xenografts; 5 times weekly oral gavage
  median tumor tripling time: 29.5 days
LNCaP-AR xenografts; pre-castrated conditions, 2 mg/kg, 5 times weekly oral gavage, comparator enzalutamide 10 mg/kg
  tumor regression: significantly better tumor regression compared to enzalutamide
VCaP xenograft tumors; mouse, in vivo, 2 mg/kg
  toxicity (body weight): non-toxic
VCaP xenograft tumors; various doses, once daily oral gavage, 5 times per week for 6 weeks, best observed at 2 mg/kg
  tumor growth: dose-dependent reduction
PC3 xenograft tumors
  regression of AR-independent PC3 tumors: significant regression

## CNC(=O)c1ccc(N2C(=S)N(c3ccc(C#N)c(C(F)(F)F)c3)C(=O)C2(C)C)cc1F [enzalutamide]
LNCaP-AR xenografts; 5 times weekly oral gavage
  median tumor tripling time: 23.5 days
